According to patent EP4534610A1, “FLUOROPHORE COMPOUNDS AND PRODUCTION THEREOF” (Université Fribourg, priority 2023, dated 2025):
Where “and” joins values, the source holds several entries; their conditions need not be identical. Identical values can stand only once.

Experiments:
[1] = system: HEK/OVA-B16 cells; assay: Staining and fluorescence imaging of living cells; type: cell-based; conditions: for staining pattern in cells: HEK/OVA-B16 cells; for uptake by living cells: dyes applied for up to 1 hour at 10µM; for fluorescence emission spectrum in situ, peak: excited at 405 nm
[2] = Photostability: UV-visible spectra of 5µM solutions after continuous irradiation with 400 nm light (Xenon-arc lamp, 300 Watt); type: physicochemical; conditions: for stability of the absorbance under irradiation: up to 24h
Method: To examine the stability of the absorbance of PyPeBr and PyPe, 5µM solution (2.5 mL) of the respective compounds were prepared using different solvents. The compounds were then irradiated with 400nm using a Xenon-arc lamp at 300 Watt (25 nm FWHM). Following predefined irradiation periods, indicated in Figures 6A to 6H, UV-visible spectra were collected to monitor the stability of PyPeBr and PyPe in different solvents.

[3] = Optical properties in different solvents: emission and absorption maxima, lifetime, quantum yield; type: physicochemical; conditions: for Lifetime, τavr.: multiexponential lifetime represented with τavr.; for Φf: quantum yield determined using integrating sphere
Method: (§1) ^1H-NMR was recorded on 400 MHz (Brucker DRX 400) and ^13C-NMR spectra were recorded on Bruker 100 MHz spectrometer at room temperature with d6-DMSO as a solvent and tetramethylsilane (TMS) as the internal standard. Mass spectra were performed on the Bruker-ION Trap Ms. Fluorescence spectra were measured on an Edinburgh Instruments FS5 Spectrofluorometer. Absorption spectra were determined on a Perkin Elmer UV/VIS Lambda 2 (190-1100 nm) spectrophotometer. IR spectra were recorded on a Perking Elmer FT-IR spectrometer Frontier 4000-400 cm^-1. Single crystal structures were obtained from a STOE-IPDS II (Single crystal diffractometer λ-Mo), solved and refined using SHELXT software package.

[4] = Photoluminescence emission spectra in different solvents; type: physicochemical
Method: The photo-physical properties of these dye molecules with stilbene-like motifs were investigated in different solvents in order to determine their maximum absorption and emission wavelengths (Figures 6A to 6C). The compounds were dissolved in Acetonitrile (CH3CN), chloroform (CHCl3), c-hexane (c-HEX), dichloromethane (DCM), dimethylformamide (DMF), methanol (MeOH), tetrahydrofuran (THF), and toluene (Tol).
The highest emission intensity was detected when THF and c-Hex were used as solvents, with lesser intensity recorded for DMF and Tol. PyPe emits light in the blue range, with emission peaks between 380nm and 550nm. Absolute intensities of up to 3.5 x 10^6 were recorded for PyPe in c-Hex.
The photoluminescence spectra of PyPeBr upon excitation at 440nm when dissolved in CH3CN, CHCl3, DCM, DMF, MeOH, or Tol, and upon excitation at 370 nm when dissolved in c-Hex or THF is shown in Figure 4B. PyPeBr has a relatively broad emission spectrum, which depends on the solvent used. The emission spectrum of PyPeBr can be as broad to cover most of the visible range. This broad emission range offers the possibility to select a desired wavelength for imaging by applying appropriate filters.
PyPh emits light in the blue range, ranging from 400nm to 500nm. […] The loss in stability is due to the self-photobleaching reactions, which are induced by irradiation.
as §1

[5] = Light-induced E/Z isomerisation and photostationary state (X-ray of Zn complex, NMR, UV-Vis); type: physicochemical; conditions: similar irradiation conditions, NMR and UV-visible experiments
Description: Evidence of the efficient photostationary state of PyPe, was provided by exposing a coordination metal complex of E-PyPe with Zn^2+, [Zn(E-PyPe)2Cl2]·2DCM, comprising two PyPe. X-Ray analysis confirmed that prior to irradiation both PyPe in the complex were primarily in E-configuration when coordinated to the Zn^2+ metal centre.
This experiment provided evidence that the light-induced E/Z-configurational change in PyPe reaches a photostationary equilibrium of E/Z-PyPe.
This was achieved by reacting allyl bromide at 40 °C in Acetonitril (MeCN) as described below to produce PyPeBr.

[6] = Solubility
[7] = system: melanoma OVA-B16 cells line; assay: MTT cytotoxicity assay; type: cell-based
Method: To this end, cytotoxicity tests using the MTT assay, a standard colorimetric assay for assessing cell metabolic activity known to the person skilled in the art, on melanoma OVA-B16 cells line were performed. […] Cell growth of OVA-16 cells was unaffected after 1h and 24h of exposure of PyPeBr at this concentration.

C(=C\c1ccc2ccc3cccc4ccc1c2c34)/c1ccncc1 [PyPe, (E)-4-(2-(pyren-1-yl)vinyl)pyridine, reference compound]
morphological signs of cell toxicity ([1]; 10µM): No morphological signs of cell toxicity
staining pattern in cells [1]: cytosolic staining and subcellular partitioning
uptake by living cells [1]: readily taken up
fluorescence emission spectrum in situ, peak [1]: 465 nm
stability of the absorbance under irradiation ([2]; 5µM in DCM): an early bleaching effect could be detected within the first 15 minutes of irradiation
stability of the absorbance under irradiation ([2]; 5µM in MeOH): an early bleaching effect could be detected within the first 15 minutes of irradiation
Knr ([3]; solvent CH3CN): 0.38 10^8 s^-1
kr ([3]; solvent CH3CN): 4.44 10^8 s^-1
Lifetime, τavr. ([3]; solvent CH3CN): 2.07 ns
Φf ([3]; solvent CH3CN): 0.92
λ^em max ([3]; solvent CH3CN, λex = 405 nm): 616 nm
Knr ([3]; solvent CHCl3): 0.66 10^8 s^-1
kr ([3]; solvent CHCl3): 5.44 10^8 s^-1
Lifetime, τavr. ([3]; solvent CHCl3): 1.65 ns
Φf ([3]; solvent CHCl3): 0.89
λ^em max ([3]; solvent CHCl3, λex = 405 nm): 607 nm
Knr ([3]; solvent DCM): 2.38 10^8 s^-1
kr ([3]; solvent DCM): 3.43 10^8 s^-1
Lifetime, τavr. ([3]; solvent DCM): 1.72 ns
Φf ([3]; solvent DCM): 0.59
λ^em max ([3]; solvent DCM, λex = 405 nm): 623 nm
Knr ([3]; solvent DMF): 0.26 10^8 s^-1
kr ([3]; solvent DMF): 2.60 10^8 s^-1
Lifetime, τavr. ([3]; solvent DMF): 3.5 ns
Φf ([3]; solvent DMF): 0.91
Knr ([3]; solvent MeOH): 0.65 10^8 s^-1
kr ([3]; solvent MeOH): 3.19 10^8 s^-1
Lifetime, τavr. ([3]; solvent MeOH): 2.6 ns
Φf ([3]; solvent MeOH): 0.83
λ^em max ([3]; solvent MeOH, λex = 405 nm): 611 nm
Knr ([3]; solvent THF): 2.17 10^8 s^-1
kr ([3]; solvent THF): 2.26 10^8 s^-1
Lifetime, τavr. ([3]; solvent THF): 2.26 ns
Φf ([3]; solvent THF): 0.51
λ^em max ([3]; solvent THF, λex = 405 nm): 613 nm
Knr ([3]; solvent Toluene): 0.53 10^8 s^-1
kr ([3]; solvent Toluene): 3.91 10^8 s^-1
Lifetime, τavr. ([3]; solvent Toluene): 2.25 ns
Φf ([3]; solvent Toluene): 0.88
λ^em max ([3]; solvent Toluene, λex = 405 nm): 603 nm
Knr ([3]; solvent c-Hex): 0.47 10^8 s^-1
kr ([3]; solvent c-Hex): 0.84 10^8 s^-1
Lifetime, τavr. ([3]; solvent c-Hex): 7.58 ns
Φf ([3]; solvent c-Hex): 0.64
absolute emission intensities ([4]; in c-Hex, excitation at 370nm): up to 3.5 x 10^6

C=CC[n+]1ccc(/C=C/c2ccc3ccc4cccc5ccc2c3c45)cc1.[Br-] [PyPeBr, (E)-1-allyl-4-(2-(pyren-1-yl)vinyl)pyridinium bromide]
rate of E/Z-isomerization [5]: substantially faster than in PyPe
solubility in water [6]: highly soluble in water
morphological signs of cell toxicity ([1]; 10µM): cytosol structure changes were observed
morphological signs of cell toxicity ([1]; 50µM): cells became round and started to detach
staining pattern in cells [1]: stained the cytoplasm
uptake by living cells [1]: readily taken up
fluorescence emission spectrum in situ, peak [1]: 565 nm
deterioration in cell activity ([7]; 50 µM in cell buffered water or water/buffer/DMSO mixtures): minor or non-visible signs of deterioration in cell activity
cell growth ([7]; 50 µM, after 1h and 24h of exposure): unaffected
stability of the absorbance under irradiation ([2]; 5µM in MeOH): only a minor decrease in absorbance after 15 minutes of irradiation but no further significant increase over a 24h irradiation period
capacity to absorb light ranging from 370 nm to 500 nm under irradiation ([2]; 5µM in ultra-pure water (MilliQ purification), 24h): remained substantially unchanged over a 24h irradiation period
Knr ([3]; solvent CH3CN): 3.15 10^8 s^-1
kr ([3]; solvent CH3CN): 1.05 10^8 s^-1
λ^em max ([3]; solvent CH3CN, Table 2, excitation not given): 621 nm
Lifetime, τavr. ([3]; solvent CH3CN): 2.38 ns
Φf ([3]; solvent CH3CN): 0.25
Knr ([3]; solvent CHCl3): 0.06 10^8 s^-1
kr ([3]; solvent CHCl3): 6.27 10^8 s^-1
λ^em max ([3]; solvent CHCl3, Table 2, excitation not given): 609 nm
Lifetime, τavr. ([3]; solvent CHCl3): 1.58 ns
Φf ([3]; solvent CHCl3): 0.99
Knr ([3]; solvent DCM): 1.87 10^8 s^-1
kr ([3]; solvent DCM): 0.36 10^8 s^-1
λ^abs max ([3]; solvent DCM): 492 nm
λ^em max ([3]; solvent DCM, Table 2, excitation not given): 622 nm
Lifetime, τavr. ([3]; solvent DCM): 4.5 ns
Φf ([3]; solvent DCM): 0.16
Knr ([3]; solvent DMF): 1.79 10^8 s^-1
kr ([3]; solvent DMF): 2.18 10^8 s^-1
Lifetime, τavr. ([3]; solvent DMF): 2.52 ns
Φf ([3]; solvent DMF): 0.55
Knr ([3]; solvent MeOH): 1.33 10^8 s^-1
kr ([3]; solvent MeOH): 3.79 10^8 s^-1
λ^em max ([3]; solvent MeOH, Table 2, excitation not given): 614 nm
Lifetime, τavr. ([3]; solvent MeOH): 1.95 ns
Φf ([3]; solvent MeOH): 0.74
Knr ([3]; solvent THF): 3.08 10^8 s^-1
kr ([3]; solvent THF): 0.06 10^8 s^-1
λ^abs max ([3]; solvent THF): 447 nm
λ^em max ([3]; solvent THF, Table 2, excitation not given): 617 nm
Lifetime, τavr. ([3]; solvent THF): 3.18 ns
Φf ([3]; solvent THF): 0.02
Knr ([3]; solvent Toluene): 4.21 10^8 s^-1
kr ([3]; solvent Toluene): 0.04 10^8 s^-1
λ^abs max ([3]; solvent Toluene): 455 nm
λ^em max ([3]; solvent Toluene, Table 2, excitation not given): 606 nm
Lifetime, τavr. ([3]; solvent Toluene): 2.35 ns
Φf ([3]; solvent Toluene): 0.01
Knr ([3]; solvent c-Hex): 4.69 10^8 s^-1
kr ([3]; solvent c-Hex): 0.10 10^8 s^-1
λ^abs max ([3]; solvent c-Hex): 370 nm
Lifetime, τavr. ([3]; solvent c-Hex): 2.09 ns
Φf ([3]; solvent c-Hex): 0.02
highest emission intensity ([4]; dissolved in DMF, excitation at 440nm): over 8.5 x 10^6
emission peaks ([4]; very broad emission range, listed as General Formula P1.1): 405 nm and 465 nm and 565 nm

C(=C\c1ccc2ccc3cccc4ccc1c2c34)/c1ccccc1 [PyPh, (E)-1-styrylpyrene]
morphological signs of cell toxicity ([1]; 10µM): No morphological signs of cell toxicity
uptake by living cells [1]: readily taken up
fluorescence emission spectrum in situ, peak [1]: 450 nm
stability of the absorbance under irradiation ([2]; 5µM in DCM): Comparable results
stability of the absorbance under irradiation ([2]; 5µM in MeCN): gradually decreases over a 24h irradiation period, with a significant drop detected as early as after 15 mins of irradiation
stability of the absorbance under irradiation ([2]; 5µM in MeOH): gradually decreases over a 24h irradiation period, with a significant drop detected as early as after 15 mins of irradiation
highest emission intensity, factor less than optimal emission intensities of PyPeBr ([4]; excitation at 370nm): ~1000

Cascade Blue
irradiation time to complete photobleaching ([2]; 5µM in ultra-pure water (Milli Q purification)): ≤ 8 h
